Experimental data reported in patent US6403573B1, “Compounds of azetidine and pyrrolidin” (Akzo Nobel N.V., priority 2000, dated 2002).

Tests used:
DRL-72 test = assay type: in vivo, rats
From the text: This test, carried out according to the protocol of Andrews et al [“Effects of imipramine and mirtazapine on operant performance in rats”—Drug Development Research 32: 58-66 (1994)], gives an indication of potential antidepressant-like activity.

5HT2C receptors = biological target: T1, 5HT2C receptors (Rattus norvegicus, UniProt P08909); test: Penile erection test; assay type: in vivo, rats
T1 construct: from tissue; host or cells: living rats (in vivo)
T1 sequence (P08909 33-460): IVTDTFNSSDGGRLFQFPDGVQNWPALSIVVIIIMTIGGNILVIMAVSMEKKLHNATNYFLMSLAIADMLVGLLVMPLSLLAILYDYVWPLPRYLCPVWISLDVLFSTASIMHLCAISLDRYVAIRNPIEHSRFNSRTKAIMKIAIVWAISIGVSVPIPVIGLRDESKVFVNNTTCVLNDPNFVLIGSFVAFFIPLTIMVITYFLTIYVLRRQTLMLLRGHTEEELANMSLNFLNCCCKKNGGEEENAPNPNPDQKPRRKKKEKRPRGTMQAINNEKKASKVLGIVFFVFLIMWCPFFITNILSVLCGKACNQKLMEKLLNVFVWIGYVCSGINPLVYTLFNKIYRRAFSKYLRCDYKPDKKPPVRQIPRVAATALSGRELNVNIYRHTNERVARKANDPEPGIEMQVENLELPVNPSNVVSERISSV
From the text: This test, carried out according to the protocol of Berendsen et al [“Involvement of 5-HT1C receptors in drug-induced penile erections in rats”—Psychopharmacology 101: 57-61(1990)] enables the potential in vivo activity at 5HT2C receptors to be assessed.

5-HT2C receptors = biological target: T2, 5-HT2C receptors (Homo sapiens, UniProt P28335); test: Binding test, displacement of [3H]-mesulergine, cloned human receptors expressed in 3T3 cells
T2 construct: expressed in transfected cells; host or cells: 3T3 cells
T2 sequence (P28335 33-458): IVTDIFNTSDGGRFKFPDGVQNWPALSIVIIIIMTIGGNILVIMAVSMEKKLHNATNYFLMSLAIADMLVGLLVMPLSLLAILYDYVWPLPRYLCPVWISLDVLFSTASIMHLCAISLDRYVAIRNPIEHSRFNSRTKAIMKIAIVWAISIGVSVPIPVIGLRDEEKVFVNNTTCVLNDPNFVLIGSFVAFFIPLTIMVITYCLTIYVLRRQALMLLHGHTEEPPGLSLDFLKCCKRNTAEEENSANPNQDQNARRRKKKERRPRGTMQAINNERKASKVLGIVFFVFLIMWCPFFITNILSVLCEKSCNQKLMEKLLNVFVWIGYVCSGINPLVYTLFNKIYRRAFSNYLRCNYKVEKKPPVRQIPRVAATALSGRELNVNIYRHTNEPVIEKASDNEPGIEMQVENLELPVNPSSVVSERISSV
Experimental: The tests are carried out using cloned human receptors expressed in 3T3 cells according to the protocols described in Stam et at “Genomic organization, coding sequence and functional expression of human 5-HT2 and 5-HT1A receptor genes”—European Journal of Pharmacology—Molecular Pharmacology Section 227: 153-162 (1993) and Stam et al “Genomic organisation and functional expression of the gene encoding the human serotonin 5-HT2C receptor”—European Journal of Pharmacology—Molecular Pharmacology Section 269: 339-348 (1994).

Row | melting point [°C] | SMILES | further results
1 | 174 | COc1ccc2c(c1O[C@@H]1CCNC1)CCC2.Cl | 
2 | 65 | Cl.c1cc2c(c(OC3CNC3)c1)CCC2 | 
3 | 171 | Cc1ccc2ccccc2c1OC1CNC1.Cl | 
4 | 292 | Cl.c1ccc2c(OC3CNC3)cccc2c1 | 
5 | 198 | COc1ccc(OC2CNC2)c2ccccc12.Cl | 
6 | 187 | Cl.c1cc2c(c(OC3CNC3)c1)CCCC2 | 
7 | 164 | COc1ccc2c(c1OC1CNC1)CCCC2.Cl | 
8 | 168 | Cl.c1ccc2cc(OC3CNC3)ccc2c1 | 
9 | > 250 | Cl.c1cc2c(c(OC3CNC3)c1)NCCC2 | 
10 | 188 | Cl.Clc1ccc2c(c1OC1CNC1)CCC2 | 
11 | 187 | Cl.Clc1cc(Cl)c2ccccc2c1OC1CNC1 | 
12 | 180 | Cc1ccc(OC2CNC2)c2ccccc12.Cl | 
13 | 170 | CC1CCc2c(OC3CNC3)cc(F)cc21.Cl (centres unmarked) | 
14 | 203 | Cl.c1cc(OC2CNC2)c2ccsc2c1 | 
15 | 198 | Cl.Cl.c1cc(OC2CNC2)c2ccncc2c1 | 
16 | 159 | Cl.c1ccc2c(SC3CNC3)cccc2c1 | 
17 | 127 | COCc1ccc2ccccc2c1OC1CNC1.Cl | 
18 |  | Cl.c1ccc2c(OC3CCNC3)cccc2c1 (racemic) [Compound 10c, (rac)-3-[(1-Naphtalenyl)oxy]pyrrolidine hydrochloride] | selective effect on 5-HT2C receptors in the central nervous system (5-HT2C receptors): selective effect on 5-HT2C receptors

Row | SMILES | melting point [°C] | further results
19 | COc1ccc2c(c1OC1CCNC1)CCC2.Cl (racemic) [Compound 10b, (rac)-3-[(2,3-Dihydro-5-methoxy-1H-inden-4-yl)oxy] pyrrolidine hydrochloride] | 154 | Increase in pellets earned in DRL-72 (MED) (DRL-72 test): 10 mg/kg; Erection of the penis (MED) (5HT2C receptors): 1 mg/kg
20 | COc1ccc2c(c1OC1CNC1)CCC2.Cl [Compound 5d, 3-[(2,3-Dihydro-5-methoxy-1H-inden-4-yl)oxy]-azetidine hydrochloride] | 166 | Increase in pellets earned in DRL-72 (MED) (DRL-72 test): 10 mg/kg; Erection of the penis (MED) (5HT2C receptors): 1 mg/kg
21 | COc1ccc2c(c1O[C@H]1CCNC1)CCC2.Cl [Compound 9a, (S)-(+)-3-[(2,3-Dihydro-5-methoxy-1H-inden-4-yl)oxy]-pyrrolidine Hydrochloride] | 176 | Increase in pellets earned in DRL-72 (MED) (DRL-72 test): 3 mg/kg; Erection of the penis (MED) (5HT2C receptors): 0.46 mg/kg
22 | Cl.c1cc2c(c(OC3CCNC3)c1)CCCC2 (centres unmarked) [Compound 9b, 3-[(5,6,7,8-Tetrahydro-1-naphthalenyl)oxy]-pyrrolidine hydrochloride] | 207 | selective effect on 5-HT2C receptors in the central nervous system (5-HT2C receptors): selective effect on 5-HT2C receptors
